Test results: ChEMBL document CHEMBL1649134, “Occurrence of efflux mechanism and cephalosporinase variant in a population of Enterobacter aerogenes and Klebsiella pneumoniae isolates producing extended-spectrum beta-lactamases” (2009)
Values after ≈ are worked out from the molar mass of the structure shown.

Experiments:
Type in all cases: functional
Klebsiella pneumoniae [1] = assay: Antimicrobial activity against multidrug resistant Klebsiella pneumoniae isolate 7 by broth dilution method in presence of 26.3 mg/L efflux pump inhibitor phenylalanine-arginine-beta-naphthylamide
Klebsiella pneumoniae [2] = assay: Antimicrobial activity against multidrug resistant Klebsiella pneumoniae ATCC 11296 by broth dilution method
Klebsiella aerogenes [3] = assay: Antimicrobial activity against multidrug resistant Enterobacter aerogenes ATCC 15038 by broth dilution method
Klebsiella aerogenes [4] = assay: Antimicrobial activity against multidrug resistant Enterobacter aerogenes isolate 22 by broth dilution method in presence of 26.3 mg/L efflux pump inhibitor phenylalanine-arginine-beta-naphthylamide
Klebsiella aerogenes [5] = assay: Antimicrobial activity against multidrug resistant Enterobacter aerogenes isolate 3 by broth dilution method
Klebsiella pneumoniae [6] = assay: Antimicrobial activity against multidrug resistant Klebsiella pneumoniae isolate 12 by broth dilution method in presence of 26.3 mg/L efflux pump inhibitor phenylalanine-arginine-beta-naphthylamide
Klebsiella aerogenes [7] = assay: Antimicrobial activity against multidrug resistant Enterobacter aerogenes isolate 13 by broth dilution method
Klebsiella pneumoniae [8] = assay: Antimicrobial activity against multidrug resistant Klebsiella pneumoniae isolate 7 by broth dilution method
Klebsiella aerogenes [9] = assay: Antimicrobial activity against multidrug resistant Enterobacter aerogenes isolate 1 by broth dilution method in presence of 26.3 mg/L efflux pump inhibitor phenylalanine-arginine-beta-naphthylamide
Klebsiella pneumoniae [10] = assay: Antimicrobial activity against multidrug resistant Klebsiella pneumoniae isolate 13 by broth dilution method
Klebsiella aerogenes [11] = assay: Antimicrobial activity against multidrug resistant Enterobacter aerogenes isolate 27 by broth dilution method in presence of 26.3 mg/L efflux pump inhibitor phenylalanine-arginine-beta-naphthylamide
Klebsiella aerogenes [12] = assay: Antimicrobial activity against multidrug resistant Enterobacter aerogenes isolate 22 by broth dilution method
Klebsiella aerogenes [13] = assay: Antimicrobial activity against multidrug resistant Enterobacter aerogenes isolate 2 by broth dilution method
Klebsiella aerogenes [14] = assay: Antimicrobial activity against multidrug resistant Enterobacter aerogenes isolate 16 by broth dilution method
Klebsiella aerogenes [15] = assay: Antimicrobial activity against multidrug resistant Enterobacter aerogenes isolate 14 by broth dilution method
Klebsiella pneumoniae [16] = assay: Antimicrobial activity against multidrug resistant Klebsiella pneumoniae isolate 10 by broth dilution method
Klebsiella pneumoniae [17] = assay: Antimicrobial activity against multidrug resistant Klebsiella pneumoniae isolate 3 by broth dilution method
Klebsiella aerogenes [18] = assay: Antimicrobial activity against multidrug resistant Enterobacter aerogenes isolate 21 by broth dilution method
Klebsiella aerogenes [19] = assay: Antimicrobial activity against multidrug resistant Enterobacter aerogenes isolate 5 by broth dilution method in presence of 26.3 mg/L efflux pump inhibitor phenylalanine-arginine-beta-naphthylamide
Klebsiella aerogenes [20] = assay: Antimicrobial activity against multidrug resistant Enterobacter aerogenes isolate 6 by broth dilution method
Klebsiella aerogenes [21] = assay: Antimicrobial activity against multidrug resistant Enterobacter aerogenes isolate 26 by broth dilution method in presence of 26.3 mg/L efflux pump inhibitor phenylalanine-arginine-beta-naphthylamide
Klebsiella aerogenes [22] = assay: Antimicrobial activity against multidrug resistant Enterobacter aerogenes isolate 27 by broth dilution method
Klebsiella aerogenes [23] = assay: Antimicrobial activity against multidrug resistant Enterobacter aerogenes isolate 10 by broth dilution method in presence of 26.3 mg/L efflux pump inhibitor phenylalanine-arginine-beta-naphthylamide
Klebsiella aerogenes [24] = assay: Antimicrobial activity against multidrug resistant Enterobacter aerogenes isolate 15 by broth dilution method in presence of 26.3 mg/L efflux pump inhibitor phenylalanine-arginine-beta-naphthylamide
Klebsiella pneumoniae [25] = assay: Antimicrobial activity against multidrug resistant Klebsiella pneumoniae isolate 3 by broth dilution method in presence of 26.3 mg/L efflux pump inhibitor phenylalanine-arginine-beta-naphthylamide
Klebsiella aerogenes [26] = assay: Antimicrobial activity against multidrug resistant Enterobacter aerogenes isolate 6 by broth dilution method in presence of 26.3 mg/L efflux pump inhibitor phenylalanine-arginine-beta-naphthylamide
Klebsiella aerogenes [27] = assay: Antimicrobial activity against multidrug resistant Enterobacter aerogenes isolate 7 by broth dilution method
Klebsiella pneumoniae [28] = assay: Antimicrobial activity against multidrug resistant Klebsiella pneumoniae ATCC 11296 by broth dilution method in presence of 26.3 mg/L efflux pump inhibitor phenylalanine-arginine-beta-naphthylamide
Klebsiella aerogenes [29] = assay: Antimicrobial activity against multidrug resistant Enterobacter aerogenes isolate 15 by broth dilution method
Klebsiella pneumoniae [30] = assay: Antimicrobial activity against multidrug resistant Klebsiella pneumoniae isolate 2 by broth dilution method
Klebsiella pneumoniae [31] = assay: Antimicrobial activity against multidrug resistant Klebsiella pneumoniae isolate 10 by broth dilution method in presence of 26.3 mg/L efflux pump inhibitor phenylalanine-arginine-beta-naphthylamide
Klebsiella pneumoniae [32] = assay: Antimicrobial activity against multidrug resistant Klebsiella pneumoniae isolate 6 by broth dilution method
Klebsiella aerogenes [33] = assay: Antimicrobial activity against multidrug resistant Enterobacter aerogenes isolate 2 by broth dilution method in presence of 26.3 mg/L efflux pump inhibitor phenylalanine-arginine-beta-naphthylamide
Klebsiella aerogenes [34] = assay: Antimicrobial activity against multidrug resistant Enterobacter aerogenes isolate 9 by broth dilution method
Klebsiella aerogenes [35] = assay: Antimicrobial activity against multidrug resistant Enterobacter aerogenes isolate 10 by broth dilution method
Klebsiella aerogenes [36] = assay: Antimicrobial activity against multidrug resistant Enterobacter aerogenes isolate 26 by broth dilution method
Klebsiella aerogenes [37] = assay: Antimicrobial activity against multidrug resistant Enterobacter aerogenes isolate 1 by broth dilution method
Klebsiella aerogenes [38] = assay: Antimicrobial activity against multidrug resistant Enterobacter aerogenes isolate 21 by broth dilution method in presence of 26.3 mg/L efflux pump inhibitor phenylalanine-arginine-beta-naphthylamide
Klebsiella pneumoniae [39] = assay: Antimicrobial activity against multidrug resistant Klebsiella pneumoniae isolate 2 by broth dilution method in presence of 26.3 mg/L efflux pump inhibitor phenylalanine-arginine-beta-naphthylamide
Klebsiella pneumoniae [40] = assay: Antimicrobial activity against multidrug resistant Klebsiella pneumoniae isolate 1 by broth dilution method in presence of 26.3 mg/L efflux pump inhibitor phenylalanine-arginine-beta-naphthylamide
Klebsiella aerogenes [41] = assay: Antimicrobial activity against multidrug resistant Enterobacter aerogenes isolate 24 by broth dilution method
Klebsiella pneumoniae [42] = assay: Antimicrobial activity against multidrug resistant Klebsiella pneumoniae isolate 6 by broth dilution method in presence of 26.3 mg/L efflux pump inhibitor phenylalanine-arginine-beta-naphthylamide

CCn1cc(C(=O)O)c(=O)c2cc(F)c(N3CCNCC3)cc21 [NORFLOXACIN]
MIC (Klebsiella pneumoniae [1]): 0.25 µg/mL
MIC (Klebsiella pneumoniae [2]): 0.5 µg/mL (≈ 1.57 µM)
MIC (Klebsiella aerogenes [3]): 0.125 µg/mL (≈ 0.391 µM)
MIC (Klebsiella aerogenes [4]): 128 µg/mL
MIC (Klebsiella aerogenes [5]): 256 µg/mL (≈ 802 µM)
MIC (Klebsiella pneumoniae [6]): 0.25 µg/mL
MIC (Klebsiella aerogenes [7]): 512 µg/mL (≈ 1600 µM)
MIC (Klebsiella pneumoniae [8]): 0.25 µg/mL (≈ 0.783 µM)
MIC (Klebsiella aerogenes [9]): 256 µg/mL
MIC (Klebsiella pneumoniae [10]): > 256 µg/mL
MIC (Klebsiella aerogenes [11]): 128 µg/mL
MIC (Klebsiella aerogenes [12]): 256 µg/mL (≈ 802 µM)
MIC (Klebsiella aerogenes [13]): 256 µg/mL (≈ 802 µM)
MIC (Klebsiella aerogenes [14]): 512 µg/mL (≈ 1600 µM)
MIC (Klebsiella aerogenes [15]): 512 µg/mL (≈ 1600 µM)
MIC (Klebsiella pneumoniae [16]): 128 µg/mL (≈ 401 µM)
MIC (Klebsiella pneumoniae [17]): 128 µg/mL (≈ 401 µM)
MIC (Klebsiella aerogenes [18]): 512 µg/mL (≈ 1600 µM)
MIC (Klebsiella aerogenes [19]): 512 µg/mL
MIC (Klebsiella aerogenes [20]): 64 µg/mL (≈ 200 µM)
MIC (Klebsiella aerogenes [21]): 128 µg/mL
MIC (Klebsiella aerogenes [22]): 256 µg/mL (≈ 802 µM)
MIC (Klebsiella aerogenes [23]): 256 µg/mL
MIC (Klebsiella aerogenes [24]): 128 µg/mL
MIC (Klebsiella pneumoniae [25]): 128 µg/mL
MIC (Klebsiella aerogenes [26]): 2 µg/mL
MIC (Klebsiella aerogenes [27]): 256 µg/mL (≈ 802 µM)
MIC (Klebsiella pneumoniae [28]): 0.125 µg/mL
MIC (Klebsiella aerogenes [29]): 512 µg/mL (≈ 1600 µM)
MIC (Klebsiella pneumoniae [30]): 4 µg/mL (≈ 12.5 µM)
MIC (Klebsiella pneumoniae [31]): 128 µg/mL
MIC (Klebsiella pneumoniae [32]): 1 µg/mL (≈ 3.13 µM)
MIC (Klebsiella aerogenes [33]): 256 µg/mL
MIC (Klebsiella aerogenes [34]): 128 µg/mL (≈ 401 µM)
MIC (Klebsiella aerogenes [35]): 256 µg/mL (≈ 802 µM)
MIC (Klebsiella aerogenes [36]): 256 µg/mL (≈ 802 µM)
MIC (Klebsiella aerogenes [37]): 256 µg/mL (≈ 802 µM)
MIC (Klebsiella aerogenes [38]): 128 µg/mL
MIC (Klebsiella pneumoniae [39]): 2 µg/mL
MIC (Klebsiella pneumoniae [40]): 2 µg/mL
MIC (Klebsiella aerogenes [41]): 512 µg/mL (≈ 1600 µM)
MIC (Klebsiella pneumoniae [42]): 0.25 µg/mL

CN(C)[C@@H]1C(O)=C(C(N)=O)C(=O)[C@@]2(O)C(O)=C3C(=O)c4c(O)cccc4[C@@](C)(O)[C@H]3C[C@@H]12 [TETRACYCLINE]
MIC (Klebsiella pneumoniae [1]): 128 µg/mL
MIC (Klebsiella pneumoniae [2]): 2 µg/mL (≈ 4.5 µM)
MIC (Klebsiella aerogenes [3]): 1 µg/mL (≈ 2.25 µM)
MIC (Klebsiella aerogenes [4]): 4 µg/mL
MIC (Klebsiella aerogenes [5]): 128 µg/mL (≈ 288 µM)
MIC (Klebsiella pneumoniae [6]): 256 µg/mL
MIC (Klebsiella aerogenes [7]): 64 µg/mL (≈ 144 µM)
MIC (Klebsiella pneumoniae [8]): 2 µg/mL (≈ 4.5 µM)
MIC (Klebsiella aerogenes [9]): 8 µg/mL
MIC (Klebsiella pneumoniae [10]): 4 µg/mL (≈ 9 µM)
MIC (Klebsiella aerogenes [11]): 8 µg/mL
MIC (Klebsiella aerogenes [12]): 128 µg/mL (≈ 288 µM)
MIC (Klebsiella aerogenes [13]): 64 µg/mL (≈ 144 µM)
MIC (Klebsiella aerogenes [14]): 64 µg/mL (≈ 144 µM)
MIC (Klebsiella aerogenes [15]): 64 µg/mL (≈ 144 µM)
MIC (Klebsiella pneumoniae [16]): 2 µg/mL (≈ 4.5 µM)
MIC (Klebsiella pneumoniae [17]): 4 µg/mL (≈ 9 µM)
MIC (Klebsiella aerogenes [18]): 128 µg/mL (≈ 288 µM)
MIC (Klebsiella aerogenes [19]): 32 µg/mL
MIC (Klebsiella aerogenes [20]): 4 µg/mL (≈ 9 µM)
MIC (Klebsiella aerogenes [21]): 2 µg/mL
MIC (Klebsiella aerogenes [22]): 128 µg/mL (≈ 288 µM)
MIC (Klebsiella aerogenes [23]): 8 µg/mL
MIC (Klebsiella aerogenes [24]): 8 µg/mL
MIC (Klebsiella pneumoniae [25]): 256 µg/mL
MIC (Klebsiella aerogenes [26]): 8 µg/mL
MIC (Klebsiella aerogenes [27]): 128 µg/mL (≈ 288 µM)
MIC (Klebsiella pneumoniae [28]): 1 µg/mL
MIC (Klebsiella aerogenes [29]): 64 µg/mL (≈ 144 µM)
MIC (Klebsiella pneumoniae [30]): 64 µg/mL (≈ 144 µM)
MIC (Klebsiella pneumoniae [31]): 256 µg/mL
MIC (Klebsiella pneumoniae [32]): 2 µg/mL (≈ 4.5 µM)
MIC (Klebsiella aerogenes [33]): 4 µg/mL
MIC (Klebsiella aerogenes [34]): 64 µg/mL (≈ 144 µM)
MIC (Klebsiella aerogenes [35]): 128 µg/mL (≈ 288 µM)
MIC (Klebsiella aerogenes [36]): 32 µg/mL (≈ 72 µM)
MIC (Klebsiella aerogenes [37]): 128 µg/mL (≈ 288 µM)
MIC (Klebsiella aerogenes [38]): 8 µg/mL
MIC (Klebsiella pneumoniae [39]): 2 µg/mL
MIC (Klebsiella pneumoniae [40]): 128 µg/mL
MIC (Klebsiella aerogenes [41]): 64 µg/mL (≈ 144 µM)
MIC (Klebsiella pneumoniae [42]): 256 µg/mL
